Among the data in patent US10160755B2 (Plexxikon Inc., priority 2015, dated 2018) are IC50 values, retold here.

The first assay deals with T1, FLT3-ITD (Homo sapiens, UniProt P36888).
T1 construct: FLT3-ITD; Invitrogen #PV6190
T1 sequence (P36888 1-993): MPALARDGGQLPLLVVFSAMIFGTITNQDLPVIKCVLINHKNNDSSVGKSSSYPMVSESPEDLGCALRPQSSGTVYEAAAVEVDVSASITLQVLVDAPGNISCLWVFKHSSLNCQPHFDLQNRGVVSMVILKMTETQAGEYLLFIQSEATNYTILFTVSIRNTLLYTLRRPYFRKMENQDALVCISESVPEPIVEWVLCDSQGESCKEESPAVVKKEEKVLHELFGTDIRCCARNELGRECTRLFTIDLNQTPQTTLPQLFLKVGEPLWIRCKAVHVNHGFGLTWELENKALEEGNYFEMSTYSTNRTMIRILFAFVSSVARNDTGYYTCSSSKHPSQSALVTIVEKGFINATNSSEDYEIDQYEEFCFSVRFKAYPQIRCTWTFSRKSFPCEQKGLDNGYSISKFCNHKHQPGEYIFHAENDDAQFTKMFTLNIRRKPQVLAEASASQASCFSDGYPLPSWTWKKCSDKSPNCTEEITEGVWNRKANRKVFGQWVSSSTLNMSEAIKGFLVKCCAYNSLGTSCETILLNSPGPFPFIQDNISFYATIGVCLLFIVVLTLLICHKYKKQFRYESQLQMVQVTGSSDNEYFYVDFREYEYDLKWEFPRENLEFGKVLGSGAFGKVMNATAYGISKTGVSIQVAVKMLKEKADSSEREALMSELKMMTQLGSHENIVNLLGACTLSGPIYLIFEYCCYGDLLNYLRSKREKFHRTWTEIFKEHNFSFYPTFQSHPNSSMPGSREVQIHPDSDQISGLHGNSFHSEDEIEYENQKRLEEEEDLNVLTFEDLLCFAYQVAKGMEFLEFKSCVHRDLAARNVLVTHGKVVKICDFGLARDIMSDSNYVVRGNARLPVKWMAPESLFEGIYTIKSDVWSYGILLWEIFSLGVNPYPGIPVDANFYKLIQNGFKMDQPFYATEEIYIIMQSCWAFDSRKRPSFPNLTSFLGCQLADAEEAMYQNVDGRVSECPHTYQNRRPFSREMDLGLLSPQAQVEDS
The assay can be described thus: FLT3-ITD biochemical kinase assay (AlphaScreen). An excerpt: (§1) In order to determine the effect of compounds on FLT3 catalytic activity, kinase assays using recombinant enzymes and AlphaScreen® technology have been established. When the kinases are catalytically active, they phosphorylate a biotinylated peptide substrate on tyrosine residues. Using AlphaScreen® technology, the ability of the compounds to affect the catalytic activity of the kinases can be measured quantitatively. The peptide substrate is immobilized by the AlphaScreen® Streptavidin Donor beads and, upon phosphorylation by a tyrosine kinase, can bind to AlphaScreen® Anti-Phosphotyrosine (PY20) Acceptor beads. Upon excitation of these beads with laser light at 680 nm, singlet oxygen is produced. This singlet oxygen is rapidly quenched, unless the AlphaScreen® Anti-Phosphotyrosine (PY20) Acceptor beads are in close proximity, in which case a proximity signal can be measured at 580 nm. In the presence of catalytic activity, there is a very strong proximity signal. Selective kinase inhibitors affect a decrease in this proximity signal through a decrease in tyrosine phosphorylation of the peptide substrate.
(§2) Substrate • Poly (Glu4-Tyr) Peptide, biotin conjugate [Biotin-GG(EEEEY)10EE (SEQ ID NO: 4)] • UBI/Millipore #12-440 • Final concentration=30 nM
(§3) Adenosine Triphosphate (ATP) • Sigma #A-3377 • Final concentration for IC50 determination=10 μM (FLT3-D835Y) or 100 μM (FLT3 or FLT3-ITD) • Detection Reagent • AlphaScreen® Phosphotyrosine (PY20) Assay Kit • Perkin-Elmer #6760601M • Final concentration=10 μg/mL
(§4) Centrifuge 1 minute, shake to mix, and incubate as follows:
(§5) • Mix Streptavidin Donor beads at 6× final concentration in Stop/Detection buffer. • Add 5 μL Streptavidin Donor beads to the reaction plate. Centrifuge 1 minute, shake to mix, and incubate at room temperature for 20 minutes. • Mix Anti-Phosphotyrosine (PY20) Acceptor beads at 6× final concentration in Stop/Detection buffer. • Add 5 μL Anti-Phosphotyrosine (PY20) beads to the reaction plate. • Centrifuge 1 minute, shake to mix, and incubate at room temperature for 60 minutes. • Read plate on Wallac EnVision™ 2103 Multilabel Reader. In Vivo Model System Testing
(In Alpha technology, singlet oxygen from a donor bead excites a nearby acceptor bead.)
Regarding `CN(C)c1ncc(-c2cnc3[nH]cc(-c4ccc5ncn(C(C)(C)C)c5c4)c3c2)cn1` [P-401, 5-[3-(3-tert-butylbenzimidazol-5-yl)-1H-pyrrolo[2,3-b]pyridin-5-yl]-N,N-dimethyl-pyrimidin-2-amine], the IC50 – broadly, the concentration at which inhibition is half-maximal – lay in the range of 0.0001 to 1 µM.

On to `COc1ccc(-c2cnc3[nH]cc(-c4ccc5ncn(C(C)(C)C)c5c4)c3c2)cc1NS(C)(=O)=O` [P-370, N-[5-[3-(3-tert-butylbenzimidazol-5-yl)-1H-pyrrolo[2,3-b]pyridin-5-yl]-2-methoxy-phenyl]methanesulfonamide], for which the IC50 fell in the range of 0.0001 to 1 µM.

For the compound `COCCOc1cncc(-c2cnc3[nH]cc(-c4ccc5ncn(C(C)(C)C)c5c4)c3c2)c1` [P-368, 1-tert-butyl-6-[5-[5-(2-methoxyethoxy)-3-pyridyl]-1H-pyrrolo[2,3-b]pyridin-3-yl]benzimidazole], the IC50 is 0.0001 to 1 µM.

Regarding `CC(C)(C)n1cnc2ccc(-c3c[nH]c4ncc(-c5cnc(C#N)nc5)cc34)cc21` [P-396, 5-[3-(3-tert-butylbenzimidazol-5-yl)-1H-pyrrolo[2,3-b]pyridin-5-yl]pyrimidine-2-carbonitrile], the IC50 fell in the range of 0.0001 to 1 µM.

As to `Cc1cc(-c2cnc3[nH]cc(-c4ccc5ncn(C(C)(C)C)c5c4)c3c2)cnc1C#N` [P-393, 5-[3-(3-tert-butylbenzimidazol-5-yl)-1H-pyrrolo[2,3-b]pyridin-5-yl]-3-methyl-pyridine-2-carbonitrile], the IC50 was in the range of 0.0001 to 1 µM.

In the case of `CC(C)(C)n1cnc2ccc(-c3c[nH]c4ncc(-c5cccc(OCC(=O)O)c5)cc34)cc21` [P-374, 2-[3-[3-(3-tert-butylbenzimidazol-5-yl)-1H-pyrrolo[2,3-b]pyridin-5-yl]phenoxy]acetic acid], the IC50 is 0.0001 to 1 µM.

As for `CC(C)(C)n1cnc2ccc(-c3c[nH]c4ncc(-c5cnc(N)nc5)cc34)cc21` [P-397, 5-[3-(3-tert-butylbenzimidazol-5-yl)-1H-pyrrolo[2,3-b]pyridin-5-yl]pyrimidin-2-amine], the IC50 fell in the range of 0.0001 to 1 µM.

In a further assay the target is T2, FLT3-D835Y (Homo sapiens, UniProt P36888, D835Y).
T2 construct: purchased Invitrogen PV3967
T2 sequence (P36888 27-993 D835Y): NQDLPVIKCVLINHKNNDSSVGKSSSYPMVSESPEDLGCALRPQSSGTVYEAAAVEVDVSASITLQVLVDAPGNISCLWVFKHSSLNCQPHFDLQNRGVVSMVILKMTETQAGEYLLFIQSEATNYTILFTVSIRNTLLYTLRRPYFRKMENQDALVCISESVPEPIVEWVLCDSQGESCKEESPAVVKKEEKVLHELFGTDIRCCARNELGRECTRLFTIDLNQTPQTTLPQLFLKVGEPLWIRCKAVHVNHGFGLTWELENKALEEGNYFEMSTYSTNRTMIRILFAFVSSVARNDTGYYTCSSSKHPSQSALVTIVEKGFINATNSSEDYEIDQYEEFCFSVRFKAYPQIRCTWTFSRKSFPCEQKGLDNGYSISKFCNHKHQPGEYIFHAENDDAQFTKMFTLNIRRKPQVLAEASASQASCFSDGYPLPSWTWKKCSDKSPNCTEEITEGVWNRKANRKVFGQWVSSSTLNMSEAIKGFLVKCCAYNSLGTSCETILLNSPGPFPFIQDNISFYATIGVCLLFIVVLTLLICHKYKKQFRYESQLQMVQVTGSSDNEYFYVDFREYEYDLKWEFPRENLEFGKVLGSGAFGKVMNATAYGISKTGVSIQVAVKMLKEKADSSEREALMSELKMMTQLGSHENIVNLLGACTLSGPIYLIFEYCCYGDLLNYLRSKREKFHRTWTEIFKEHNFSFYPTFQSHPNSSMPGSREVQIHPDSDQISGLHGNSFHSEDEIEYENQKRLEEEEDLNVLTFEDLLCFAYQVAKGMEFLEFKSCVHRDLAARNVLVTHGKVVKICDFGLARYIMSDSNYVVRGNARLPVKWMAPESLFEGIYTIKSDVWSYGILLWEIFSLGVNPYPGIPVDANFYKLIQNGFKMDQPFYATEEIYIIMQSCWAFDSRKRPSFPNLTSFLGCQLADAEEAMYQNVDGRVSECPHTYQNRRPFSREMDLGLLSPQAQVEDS
The assay can be described thus: FLT3-D835Y biochemical kinase assay (AlphaScreen).
Source text: as §1, §2, §3, §4, §5
Consider `COc1cc(-c2cnc3[nH]cc(-c4ccc5ncn(-c6ccc(F)cc6)c5c4)c3c2)cc(OC)n1` [P-198, 5-(2,6-dimethoxy-4-pyridyl)-3-[3-(4-fluorophenyl)benzimidazol-5-yl]-1H-pyrrolo[2,3-b]pyridine], for which the IC50 lay within 0.0001 to 1 µM.

`N#Cc1cc(-c2cnc3[nH]cc(-c4ccc5ncn(-c6ccc(F)cc6)c5c4)c3c2)ccc1F` [P-209, 2-fluoro-5-[3-[3-(4-fluorophenyl)benzimidazol-5-yl]-1H-pyrrolo[2,3-b]pyridin-5-yl]benzonitrile]: the IC50 is 0.0001 to 1 µM.

As to `CC(C)S(=O)(=O)Nc1cccc(-c2cnc3[nH]cc(-c4ccc5ncsc5c4)c3n2)c1` [P-184, N-[3-[7-(1,3-benzothiazol-6-yl)-5H-pyrrolo[2,3-b]pyrazin-2-yl]phenyl]propane-2-sulfonamide], the IC50 was in the range of 0.0001 to 1 µM.

For the compound `Cn1cnc2ccc(-c3c[nH]c4ncc(-c5ccc(S(=O)(=O)N6CCCC6)cc5)nc34)cc21` [P-148, 7-(3-methylbenzimidazol-5-yl)-2-(4-pyrrolidin-1-ylsulfonylphenyl)-5H-pyrrolo[2,3-b]pyrazine], the IC50 is 0.0001 to 1 µM.

`O=S(=O)(c1ccc(-c2cnc3[nH]cc(-c4ccc5ncsc5c4)c3n2)cc1)N1CCCC1` [P-160, 6-[2-(4-pyrrolidin-1-ylsulfonylphenyl)-5H-pyrrolo[2,3-b]pyrazin-7-yl]-1,3-benzothiazole] showed an IC50 of 0.0001 to 1 µM.

In turn, `CC(C)(C)n1cnc2ccc(-c3c[nH]c4ncc(NS(=O)(=O)c5cccc(C#N)c5)cc34)cc21` [P-233, N-[3-(3-tert-butylbenzimidazol-5-yl)-1H-pyrrolo[2,3-b]pyridin-5-yl]-3-cyano-benzenesulfonamide] came in with a half-maximal inhibitory concentration (IC50) of 0.0001 to 1 µM.

`Cn1cc(-c2cnc3[nH]cc(-c4ccc5ncsc5c4)c3n2)ccc1=O` [P-182, 5-[7-(1,3-benzothiazol-6-yl)-5H-pyrrolo[2,3-b]pyrazin-2-yl]-1-methyl-pyridin-2-one] came in with an IC50 of 0.0001 to 1 µM.

As for `O=S(=O)(c1cccc(-c2cnc3[nH]cc(-c4ccc5ncsc5c4)c3n2)c1)N1CCCC1` [P-171, 6-[2-(3-pyrrolidin-1-ylsulfonylphenyl)-5H-pyrrolo[2,3-b]pyrazin-7-yl]-1,3-benzothiazole], the IC50 was 0.0001 to 1 µM.

`COc1cc(-c2cnc3[nH]cc(-c4ccc5ncsc5c4)c3n2)cc(OC)n1` [P-172, 6-[2-(2,6-dimethoxy-4-pyridyl)-5H-pyrrolo[2,3-b]pyrazin-7-yl]-1,3-benzothiazole] had an IC50 of 0.0001 to 1 µM.

The compound `COc1cnc2[nH]cc(-c3ccc4[nH]ncc4c3)c2c1` [P-003, 3-(1H-indazol-5-yl)-5-methoxy-1H-pyrrolo[2,3-b]pyridine] had an IC50 of 1 to 10 µM.

On to `COc1cc(-c2cnc3[nH]c(C)c(-c4ccc5ncn(C)c5c4)c3c2)ccn1` [P-112, 5-(2-methoxy-4-pyridyl)-2-methyl-3-(3-methylbenzimidazol-5-yl)-1H-pyrrolo[2,3-b]pyridine], for which the IC50 lay within 0.0001 to 1 µM.

`COc1cc(-c2cnc3[nH]cc(-c4ccc5ncsc5c4)c3n2)ccc1C#N` [P-183, 4-[7-(1,3-benzothiazol-6-yl)-5H-pyrrolo[2,3-b]pyrazin-2-yl]-2-methoxy-benzonitrile]: the IC50 was 0.0001 to 1 µM.

As for `Cn1cnc2ccc(-c3c[nH]c4ncc(-c5ccc(Cl)c(C#N)c5)cc34)cc21` [P-140, 2-chloro-5-[3-(3-methylbenzimidazol-5-yl)-1H-pyrrolo[2,3-b]pyridin-5-yl]benzonitrile], the IC50 fell in the range of 0.0001 to 1 µM.

In the case of `COc1cc(-c2cnc3[nH]cc(-c4ccc5ncn(-c6ccc(F)cc6)c5c4)c3n2)cc(OC)n1` [P-205, 2-(2,6-dimethoxy-4-pyridyl)-7-[3-(4-fluorophenyl)benzimidazol-5-yl]-5H-pyrrolo[2,3-b]pyrazine], the half-inhibitory concentration (IC50) is 0.0001 to 1 µM.
